Values quoted from earlier work, collected in US20200179295A1, “MRI-DETECTABLE MULTILAYER MICROCAPSULES FOR ULTRASOUND-TRIGGERED DELIVERY OF PHARMACOLOGICALLY ACTIVE AGENTS” (THE UAB RESEARCH FOUNDATION, priority 2018, published 2020).

Conditions: 1.5 T; Rohrer et al. 2005

CC(O)CN1CCN(CC(=O)[O-])CCN(CC(=O)[O-])CCN(CC(=O)[O-])CC1.[Gd+3] (stereo not shown) [ProHance, gadoteridol]
r1: 4.1 mM⁻¹ s⁻¹
